# Laboratory results: patent publication US8895605B2, “Pyrrolidine-substituted flavones as radio-sensitizers for use in the treatment of cancer” (Piramal Enterprises Limited, priority 2009, dated 2014)
# Experiments:
# [1] = tested on: Head and Neck carcinoma (FaDu) xenograft; experiment: In-vivo xenograft study, growth inhibition; conditions: FaDu xenograft in SCID mice
# From the text: The assay can be carried out according to the method described in Clinical Cancer Research, 2003, 9, 6052-6061; the disclosure of which is incorporated by reference for the teaching of the assay. The in-vivo studies can be carried out by using Xenograft models in Severe combined immune deficiency (SCID) mice strain-CBySmn.CB17-Prkdc^scid/J, by the method described below. The statistically significant number of mice per group (n=6) is chosen in order to be able to statistically evaluate the study data. Six to eight weeks old SCID mice were used. Head and neck cancer cells are grown in MEM medium containing 10% fetal calf serum in 5% CO2 incubator at 37° C. Cells are pelleted by centrifugation at 1000 rpm for 10 minutes. […] Body weight for all the groups is recorded for the entire period. Tumor size and other signs of toxicity (external) is recorded every day. […] Tumor growth in compound treated animals is calculated as T/C (Treated/Control)×100% and growth inhibition percent (GI %) was [100−T/C %] […] Treatment is continued for 18 days as mentioned in study design. • Tumor weight in milligram is calculated using the formula for a prolate ellipsoid: Tumor weight (mg)=Length (mm)×[Breadth (mm)^2]×0.5 • Treated to control ratio (T/C %) on a given day is calculated using the formula: [formula] […]
# FaDu cell line [2] = experiment: In-vitro clonogenic assay (Compound A alone and with radiation); type: cell-based, human; conditions: for Number of colonies 72 h after Compound A treatment / Number of colonies 96 h after Compound A treatment: 1500 cells/plate; for Number of colonies 72 h after Compound A treatment: control 138 colonies; for Number of colonies 96 h after Compound A treatment: control 185 colonies
# Method: The assay has been carried out according to the method described in Radiotherapy and Oncology, 2004, 71, 213-221; the disclosure of which is incorporated by reference for the teaching of the assay. The Fa-Du cells from exponential phase cultures were harvested by trypsinization, counted and plated at a cell density of 1500 cells/well in six-well plate and four identical groups were made. First group served as control that was untreated. Different wells of the second and third group, 24 h after seeding were irradiated at room temperature at dose of 2, 4, 6, 8 and 10 Gy respectively. The third group was further treated, 24 h after irradiation (i.e. on the third day of the experiment) with IC50 concentration of Compound A. The fourth group was treated on the third day of the experiment with IC50 concentration of Compound A alone. After completion of 72 h and 96 h respectively, the medium was changed for all the wells and the plates incubated for a total period of 12-14 days from the first day of the experiment (i.e. the cell seeding day) to allow sufficient time for the cells to form colonies of at least 50 cells. The medium was aspirated and colonies were fixed with methanol and acetic acid mixture in the proportion of 2:1. The fixation procedure was repeated after rinsing with water. The plates were dried and colonies stained with 0.1% crystal violet for 5 min. The wells were finally rinsed with water and dried. […] FIG. 3 and FIG. 4 show the visual enhancement in the radiation response by 1 μM dose of Compound A, in FaDu cell line (Seeding density: 1500 cells/plate).
# FaDu cell line [3] = experiment: as above; type: cell-based, human; conditions: 3500 cells/well, 1 μM Compound A for 48 h and 96 h; colonies could not be counted
# [4] = 1 μM Compound A (IC50) alone, no radiation
# [5] = 2 Gy radiation, then 1 μM Compound A 24 h after radiation
# [6] = 4 Gy radiation, then 1 μM Compound A 24 h after radiation
# [7] = 6 Gy radiation, then 1 μM Compound A 24 h after radiation
# [8] = 8 Gy radiation, then 1 μM Compound A 24 h after radiation
# [9] = 10 Gy radiation, then 1 μM Compound A 24 h after radiation
smiles,measurement,setting,value
"CN1CC[C@@H](c2c(O)cc(O)c3c(=O)cc(-c4ccccc4Cl)oc23)[C@@H]1CO.Cl [Compound A, (+)-trans-2-(2-Chlorophenyl)-5,7-dihydroxy-8-(2-hydroxymethyl-1-methyl-pyrrolidin-3-yl)-chromen-4-one hydrochloride]",Average % growth inhibition (% GI) with respect to control group,"[1]; Only Compound A, 35 mpk i.p. everyday for 18 days",42%
same,Average % growth inhibition (% GI) with respect to control group,"[1]; Radiation (3 Gy twice weekly, total 15 Gy) + Compound A 35 mpk i.p. everyday for 18 days",75%
same,Number of colonies 72 h after Compound A treatment,FaDu cell line [2]; [4],38
same,Number of colonies 96 h after Compound A treatment,FaDu cell line [2]; [4],36
same,Radiation response in clonogenic assay,"FaDu cell line [2]; 1 μM Compound A for both 72 h and 96 h, at both 4 and 6 Gy, 1500 cells/well",enhanced the radiation response
same,Number of colonies 72 h after Compound A treatment,FaDu cell line [2]; [5],45
same,Number of colonies 96 h after Compound A treatment,FaDu cell line [2]; [5],40
same,Number of colonies 72 h after Compound A treatment,FaDu cell line [2]; [6],18
same,Number of colonies 96 h after Compound A treatment,FaDu cell line [2]; [6],17
same,Number of colonies 72 h after Compound A treatment,FaDu cell line [2]; [7],7
same,Number of colonies 96 h after Compound A treatment,FaDu cell line [2]; [7],6
same,Number of colonies 72 h after Compound A treatment,FaDu cell line [2]; [8],0
same,Number of colonies 96 h after Compound A treatment,FaDu cell line [2]; [8],2
same,Number of colonies 72 h after Compound A treatment,FaDu cell line [2]; [9],0
same,Number of colonies 96 h after Compound A treatment,FaDu cell line [2]; [9],0
same,Radiation response in clonogenic assay (visual),FaDu cell line [3],visual enhancement in radiation response
